# Assay results reported in patent publication US11612595B2, “Compositions and methods for treating rheumatoid arthritis” (Generos Biopharma Ltd., priority 2017, dated 2023).
# Columns and labels:
# [1] = test system: collagen-induced arthritis (CIA) model mice; test: collagen-induced arthritis (CIA) model mice, clinical scores; format: in vivo, DBA/1J mice; design: key to Pairwise analysis of the difference between groups (clinical scores), vs Model / Pairwise analysis of the difference between groups (clinical scores), S5i 5 mpk vs S5i 10 mpk: p values from pairwise comparisons
# From the text: FIGS. 8A and 8B show graphs depicting clinical score changes in four groups of CIA mouse models under different treatment schemes. In FIG. 8A, different chemicals (DMSO as control for Model group, blank group is left untreated) were daily administered intraperitoneally at the indicated doses from the first injection of the collagen agent. In FIG. 8B, different chemicals were daily administered intraperitoneally from the second injection of collagen agent at the indicated doses. Clinical scores were given double-blindly according to the scoring scheme every 2 days.
# FIGS. 9A and 9B show graphs of clinical scores at day 44 for each group, the overall difference analyzed by ANOVA is significant p<0.0001, while the p value between Model and each individual group is labeled above the bar * p<0.05, ** p<0.01.
# Eight of nine groups (10 mice in each group) of male DBA/1J mice (age 9-10 weeks. H-2q haplotype) were subject to CIA model induction and then to different treatment schemes. The group of mice without CIA model induction was used as a control (Blank). Specifically, Bovine type II collagen (Chondrex) was mixed with Freund's complete adjuvant (CFA) (Sigma) and injected s.c. to flank near tail of the mice twice (the second injection was made 21 days after the first injection) to create CIA model mice. The eight groups of CIA model mice were separated into four prophylactic groups and four therapeutic groups, with each group subjected to different treatments.
# In the four prophylactic groups, daily treatments started from the date when the first CIA induction injection was made. The first of the four prophylactic groups of CIA model mice were treated with 30% PEG300 (containing 4% DMSO-all 30% PEG300 in the application contains 4% DMSO) solution via intraperitoneal injection as controls (Model). The second of the four prophylactic groups of CIA model mice were treated with nicotinohydrazide (Calbiochem) 10 mg/kg in 30% PEG300 solution via intraperitoneal injection (573108 10 mg/kg). The third of the four prophylactic groups of CIA model mice were treated with nicotinohydrazide (Calbiochem) 5 mg/kg in 30% PEG300 solution via intraperitoneal injection (573108 5 mg/kg). The last of the four prophylactic groups of CIA model mice were treated with Tofacitinib (Selleckchem) 5 mg/kg in 30% PEG300 solution via intraperitoneal injection (Tofacitinib 5 mg/kg).
# In the four therapeutic groups, daily treatments started from the date when the second CIA induction injection was made. The first of the four therapeutic groups of CIA model mice were treated with 30% PEG300 solution via intraperitoneal injection as controls (Model). The second of the four therapeutic groups of CIA model mice were treated with nicotinohydrazide (Calbiochem) 10 mg/kg in 30% PEG300 solution via intraperitoncal injection (573108 10 mg/kg). The third of the four therapeutic groups of CIA model mice were treated with nicotinohydrazide (Calbiochem) 5 mg/kg in 30% PEG300 solution via intraperitoneal injection (573108 5 mg/kg). The last of the four therapeutic groups of CIA model mice were treated with Tofacitinib (Selleckchem) 5 mg/kg in 30% PEG300 solution via intraperitoncal injection (Tofacitinib 5 mg/kg).
# The inventors collected data of the weight, and clinical scores of the mice every 2-3 days and performed statistic analysis. The method used in the statistic analysis was Student's t test, unpaired, two-tailed analysis.
# The clinical scores were derived according to the scheme in Table 2.
# STAT3 = STAT3 (Homo sapiens, UniProt P40763); conditions: Daudi cells; cited from earlier work
# STAT3, sequence (P40763 whole entry): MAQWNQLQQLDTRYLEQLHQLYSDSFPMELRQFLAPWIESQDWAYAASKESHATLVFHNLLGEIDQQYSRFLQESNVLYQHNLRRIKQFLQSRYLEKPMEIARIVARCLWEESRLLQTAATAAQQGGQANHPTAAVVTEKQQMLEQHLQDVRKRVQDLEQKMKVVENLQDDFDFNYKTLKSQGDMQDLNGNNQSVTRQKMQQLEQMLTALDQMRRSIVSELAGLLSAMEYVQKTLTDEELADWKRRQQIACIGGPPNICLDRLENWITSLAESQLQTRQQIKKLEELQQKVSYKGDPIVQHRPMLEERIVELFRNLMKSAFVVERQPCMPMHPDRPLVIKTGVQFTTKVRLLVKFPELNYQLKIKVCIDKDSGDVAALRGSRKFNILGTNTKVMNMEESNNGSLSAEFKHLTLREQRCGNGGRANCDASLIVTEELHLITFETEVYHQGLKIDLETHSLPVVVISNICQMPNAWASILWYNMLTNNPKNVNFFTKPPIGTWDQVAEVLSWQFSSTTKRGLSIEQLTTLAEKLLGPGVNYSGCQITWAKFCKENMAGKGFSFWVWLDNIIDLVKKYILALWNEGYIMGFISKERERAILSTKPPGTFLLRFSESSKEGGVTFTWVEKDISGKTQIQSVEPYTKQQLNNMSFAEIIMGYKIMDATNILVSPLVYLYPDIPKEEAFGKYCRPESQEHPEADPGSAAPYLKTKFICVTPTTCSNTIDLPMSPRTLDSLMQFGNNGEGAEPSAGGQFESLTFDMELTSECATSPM
# [2] = test system: adjuvant-induced arthritis (AIA) rat model; test: AIA rat model, paw volume and clinical scores; format: in vivo, rats
# Protocol: FIG. 3 is a graph illustrating the treatment scheme in an adjuvant-induced arthritis (AIA) rat model. In the prophylactic group, treatment starts from day 0 and administered every other day. In the therapeutic group, treatment starts from day 13 and was administered every other day.
# Three groups (10 rats in each group) of female rats (age 8 weeks) were subject to AIA model induction and then to different treatment schemes. Specifically, 100 ug mBSA mixed with CFA was injected s.c. to flank near tail, and one dose of B. pertusiss was injected i.p. the next day to boost the immune reaction. The first of the three groups of rats were treated with DMSO (Vehicle). The second of the three groups of rats were treated with pimozide (Sigma-Aldrich) 10 mg/kg of body weight (same unit are used throughout this application) in 30% PEG300 solution via intraperitoneal injection with collagen injection starting from day 7 (Therapeutic). The last of the three groups of rats were treated with pimozide (Sigma-Aldrich) 10 mg/kg in 30% PEG300 solution via intraperitoneal injection either with collagen injection starting from day 0. As a control, a fourth group of female rats (5 rats) were spared the AIA model induction and were not treated. The inventors collected data of the weight, paw volume, and clinical scores every three days and performed statistic analysis.
# The clinical scores were derived according to the scheme in Table 1.
# The method used in the statistic analysis was Student's t test, unpaired, two-tailed analysis.
# [3] = Prophylactic group, 10 mg/kg i.p. from day 0, starting from day 13
# [4] = Therapeutic group, 10 mg/kg i.p., starting from day 17
smiles,measurement,setting,value
"O=C(N/N=C/c1coc2ccccc2c1=O)c1cccnc1 [nicotinohydrazide, N′-((4-Oxo-4H-chromen-3-yl)methylene)nicotinohydrazide]",clinical scores compared to Model,"[1]; prophylactic groups, 5 mg/kg i.p. daily",reduced clinical scores
same,clinical scores compared to Model,"[1]; prophylactic groups, 10 mg/kg i.p. daily",reduced clinical scores
same,"Pairwise analysis of the difference between groups (clinical scores), vs Model","[1]; prophylactic groups, 5 mpk, Day 28",0.1019
same,"Pairwise analysis of the difference between groups (clinical scores), vs Model","[1]; prophylactic groups, 5 mpk, Day 30",0.0410
same,"Pairwise analysis of the difference between groups (clinical scores), vs Model","[1]; prophylactic groups, 5 mpk, Day 32",0.0740
same,"Pairwise analysis of the difference between groups (clinical scores), vs Model","[1]; prophylactic groups, 5 mpk, Day 35",0.0615
same,"Pairwise analysis of the difference between groups (clinical scores), vs Model","[1]; prophylactic groups, 5 mpk, Day 37",0.1101
same,"Pairwise analysis of the difference between groups (clinical scores), vs Model","[1]; prophylactic groups, 5 mpk, Day 39",0.0010
same,"Pairwise analysis of the difference between groups (clinical scores), vs Model","[1]; prophylactic groups, 5 mpk, Day 42",0.0185
same,"Pairwise analysis of the difference between groups (clinical scores), vs Model","[1]; prophylactic groups, 5 mpk, Day 44",0.2729
same,"Pairwise analysis of the difference between groups (clinical scores), vs Model","[1]; prophylactic groups, 10 mpk, Day 28",0.1491
same,"Pairwise analysis of the difference between groups (clinical scores), vs Model","[1]; prophylactic groups, 10 mpk, Day 30",0.1452
same,"Pairwise analysis of the difference between groups (clinical scores), vs Model","[1]; prophylactic groups, 10 mpk, Day 32",0.1256
same,"Pairwise analysis of the difference between groups (clinical scores), vs Model","[1]; prophylactic groups, 10 mpk, Day 35",0.0354
same,"Pairwise analysis of the difference between groups (clinical scores), vs Model","[1]; prophylactic groups, 10 mpk, Day 37",0.0614
same,"Pairwise analysis of the difference between groups (clinical scores), vs Model","[1]; prophylactic groups, 10 mpk, Day 39",0.0008
same,"Pairwise analysis of the difference between groups (clinical scores), vs Model","[1]; prophylactic groups, 10 mpk, Day 42",0.0033
same,"Pairwise analysis of the difference between groups (clinical scores), vs Model","[1]; prophylactic groups, 10 mpk, Day 44",0.0128
same,"Pairwise analysis of the difference between groups (clinical scores), S5i 5 mpk vs S5i 10 mpk","[1]; prophylactic groups, Day 28",0.7387
same,"Pairwise analysis of the difference between groups (clinical scores), S5i 5 mpk vs S5i 10 mpk","[1]; prophylactic groups, Day 30",0.5943
same,"Pairwise analysis of the difference between groups (clinical scores), S5i 5 mpk vs S5i 10 mpk","[1]; prophylactic groups, Day 32",0.8722
same,"Pairwise analysis of the difference between groups (clinical scores), S5i 5 mpk vs S5i 10 mpk","[1]; prophylactic groups, Day 35",0.7717
same,"Pairwise analysis of the difference between groups (clinical scores), S5i 5 mpk vs S5i 10 mpk","[1]; prophylactic groups, Day 37",0.8686
same,"Pairwise analysis of the difference between groups (clinical scores), S5i 5 mpk vs S5i 10 mpk","[1]; prophylactic groups, Day 39",0.9741
same,"Pairwise analysis of the difference between groups (clinical scores), S5i 5 mpk vs S5i 10 mpk","[1]; prophylactic groups, Day 42",0.1588
same,"Pairwise analysis of the difference between groups (clinical scores), S5i 5 mpk vs S5i 10 mpk","[1]; prophylactic groups, Day 44",0.0717
same,clinical scores compared to Model,"[1]; therapeutic groups, 5 mg/kg i.p. daily",reduced clinical scores
same,clinical scores compared to Model,"[1]; therapeutic groups, 10 mg/kg i.p. daily",reduced clinical scores
same,"Pairwise analysis of the difference between groups (clinical scores), vs Model","[1]; therapeutic groups, 5 mpk, Day 28",0.0117
same,"Pairwise analysis of the difference between groups (clinical scores), vs Model","[1]; therapeutic groups, 5 mpk, Day 30",0.0295
same,"Pairwise analysis of the difference between groups (clinical scores), vs Model","[1]; therapeutic groups, 5 mpk, Day 32",0.0032
same,"Pairwise analysis of the difference between groups (clinical scores), vs Model","[1]; therapeutic groups, 5 mpk, Day 35",0.0025
same,"Pairwise analysis of the difference between groups (clinical scores), vs Model","[1]; therapeutic groups, 5 mpk, Day 37",0.0024
same,"Pairwise analysis of the difference between groups (clinical scores), vs Model","[1]; therapeutic groups, 5 mpk, Day 39",0.0019
same,"Pairwise analysis of the difference between groups (clinical scores), vs Model","[1]; therapeutic groups, 5 mpk, Day 42",0.0044
same,"Pairwise analysis of the difference between groups (clinical scores), vs Model","[1]; therapeutic groups, 5 mpk, Day 44",0.0012
same,"Pairwise analysis of the difference between groups (clinical scores), vs Model","[1]; therapeutic groups, 10 mpk, Day 28",0.0399
same,"Pairwise analysis of the difference between groups (clinical scores), vs Model","[1]; therapeutic groups, 10 mpk, Day 30",0.0190
same,"Pairwise analysis of the difference between groups (clinical scores), vs Model","[1]; therapeutic groups, 10 mpk, Day 32",0.0080
same,"Pairwise analysis of the difference between groups (clinical scores), vs Model","[1]; therapeutic groups, 10 mpk, Day 35",0.1008
same,"Pairwise analysis of the difference between groups (clinical scores), vs Model","[1]; therapeutic groups, 10 mpk, Day 37",0.1336
same,"Pairwise analysis of the difference between groups (clinical scores), vs Model","[1]; therapeutic groups, 10 mpk, Day 39",0.1189
same,"Pairwise analysis of the difference between groups (clinical scores), vs Model","[1]; therapeutic groups, 10 mpk, Day 42",0.0820
same,"Pairwise analysis of the difference between groups (clinical scores), vs Model","[1]; therapeutic groups, 10 mpk, Day 44",0.0397
same,"Pairwise analysis of the difference between groups (clinical scores), S5i 5 mpk vs S5i 10 mpk","[1]; therapeutic groups, Day 28",0.4163
same,"Pairwise analysis of the difference between groups (clinical scores), S5i 5 mpk vs S5i 10 mpk","[1]; therapeutic groups, Day 30",0.8721
same,"Pairwise analysis of the difference between groups (clinical scores), S5i 5 mpk vs S5i 10 mpk","[1]; therapeutic groups, Day 32",0.4838
same,"Pairwise analysis of the difference between groups (clinical scores), S5i 5 mpk vs S5i 10 mpk","[1]; therapeutic groups, Day 35",0.0249
same,"Pairwise analysis of the difference between groups (clinical scores), S5i 5 mpk vs S5i 10 mpk","[1]; therapeutic groups, Day 37",0.0183
same,"Pairwise analysis of the difference between groups (clinical scores), S5i 5 mpk vs S5i 10 mpk","[1]; therapeutic groups, Day 39",0.0183
same,"Pairwise analysis of the difference between groups (clinical scores), S5i 5 mpk vs S5i 10 mpk","[1]; therapeutic groups, Day 42",0.0777
same,"Pairwise analysis of the difference between groups (clinical scores), S5i 5 mpk vs S5i 10 mpk","[1]; therapeutic groups, Day 44",0.0842
same,IFN-α-stimulated STAT3 tyrosine phosphorylation,STAT3,not
"O=c1[nH]c2ccccc2n1C1CCN(CCCC(c2ccc(F)cc2)c2ccc(F)cc2)CC1 [pimozide, 1-[1-[4,4-bis(4-fluorophenyl)butyl]-4-piperidinyl]-1,3-dihydro-2H-benzimidazole-2-one]",clinical score vs Vehicle group,[2]; [3],significantly decreased
same,paw volume vs Vehicle group,[2]; [3],significantly decreased
same,clinical score vs Vehicle group,[2]; [4],significantly decreased
same,paw volume vs Vehicle group,[2]; [4],significantly decreased
